# Assay results from PMC12547752, “Silodosin as a Novel Inhibitor of Acetylcholinesterase, Butyrylcholinesterase, and BETA-Secretase 1: In Vitro and In Silico Studies” (ACS Omega, 2025).
# Target: T1, butyrylcholinesterase (BuChE) (Equus caballus, UniProt P81908)
# T1 construct: gene BCHE
# Assay: Ellman colorimetric assay with equine serum BuChE, concentration-response
# Type: biochemical
# T1 sequence (P81908 whole entry): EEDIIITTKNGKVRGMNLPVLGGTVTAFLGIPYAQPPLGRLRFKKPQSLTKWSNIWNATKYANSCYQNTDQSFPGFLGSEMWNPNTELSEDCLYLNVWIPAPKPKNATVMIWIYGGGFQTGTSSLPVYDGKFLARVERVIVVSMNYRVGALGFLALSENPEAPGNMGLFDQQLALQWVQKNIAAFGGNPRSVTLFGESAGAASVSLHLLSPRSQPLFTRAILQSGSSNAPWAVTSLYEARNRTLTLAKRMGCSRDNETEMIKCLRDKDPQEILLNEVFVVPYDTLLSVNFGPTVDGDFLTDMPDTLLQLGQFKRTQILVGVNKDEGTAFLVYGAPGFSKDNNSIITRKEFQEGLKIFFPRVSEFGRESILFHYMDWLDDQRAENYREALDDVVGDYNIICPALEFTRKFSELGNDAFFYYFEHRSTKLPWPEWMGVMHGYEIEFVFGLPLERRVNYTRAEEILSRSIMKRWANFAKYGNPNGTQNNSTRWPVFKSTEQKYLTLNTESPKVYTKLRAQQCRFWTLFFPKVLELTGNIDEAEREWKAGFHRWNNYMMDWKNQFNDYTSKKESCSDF
smiles,measurement,value
C[C@H](Cc1cc2c(c(C(N)=O)c1)N(CCCO)CC2)NCCOc1ccccc1OCC(F)(F)F [silodosin],IC50,3.02 ± 0.05 µM
